Results published in ChEMBL document CHEMBL3785042, “Discovery of MK-8831, A Novel Spiro-Proline Macrocycle as a Pan-Genotypic HCV-NS3/4a Protease Inhibitor” (ACS Med Chem Lett, 2016).

Legend:
[1] = AUC (0 to 24 hrs) in rat at 5 mg/kg, po; format: ADME, organism-based; parameters: dose 5 mg/kg, time < 24 hr, route oral; settings: in vivo
[2] = Inhibition of HCV genotype 3a full length NS3/4A protease using Ac-C(Eu)DDMEEAbu[COO]ASK(QSY7)-amide as substrate preincubated for 30 mins followed by substrate addition measured after 2.5 hrs by TRF assay; parameters: species or system Hepatitis C virus subtype 3a
[3] = Inhibition of HCV genotype 1b NS3/4A protease A156T mutant using Ac-C(Eu)DDMEEAbu[COO]ASK(QSY7)-amide as substrate preincubated for 30 mins followed by substrate addition measured after 2.5 hrs by TRF assay; parameters: species or system Hepatitis C virus subtype 1b
[4] = Inhibition of HCV genotype 1b NS3/4A protease A156V mutant using Ac-C(Eu)DDMEEAbu[COO]ASK(QSY7)-amide as substrate preincubated for 30 mins followed by substrate addition measured after 2.5 hrs by TRF assay; parameters: species or system Hepatitis C virus subtype 1b
[5] = Inhibition of HCV genotype 1b NS3/4A protease D168Y mutant using Ac-C(Eu)DDMEEAbu[COO]ASK(QSY7)-amide as substrate preincubated for 30 mins followed by substrate addition measured after 2.5 hrs by TRF assay; parameters: species or system Hepatitis C virus subtype 1b
Hepatitis C virus [6] = assay: Antiviral activity against HCV genotype 1b harboring wild type NS3/4A protease infected in human HuH7 cells assessed as inhibition of viral replication after 72 hrs by RT-PCR method in presence of 10% fetal bovine serum; format: functional, organism-based, Hepacivirus hominis; settings: Huh-7, 72 h
Hepatitis C virus [7] = assay: Antiviral activity against HCV genotype 1b harboring NS3/4A protease R155K mutant infected in human HuH7 cells assessed as inhibition of viral replication after 72 hrs by RT-PCR method in presence of 10% fetal bovine serum; format: functional, organism-based, Hepacivirus hominis; settings: Huh-7, 72 h
Hepatitis C virus [8] = assay: Antiviral activity against HCV genotype 1b harboring NS3/4A protease A156T mutant infected in human HuH7 cells assessed as inhibition of viral replication after 72 hrs by RT-PCR method in presence of 10% fetal bovine serum; format: functional, organism-based, Hepacivirus hominis; settings: Huh-7, 72 h
Hepatitis C virus [9] = assay: Antiviral activity against HCV genotype 1b harboring NS3/4A protease D168Y mutant infected in human HuH7 cells assessed as inhibition of viral replication after 72 hrs by RT-PCR method in presence of 10% fetal bovine serum; format: functional, organism-based, Hepacivirus hominis; settings: Huh-7, 72 h
Hepatitis C virus [10] = assay: Antiviral activity against HCV genotype 1a harboring wild type NS3/4A protease infected in human HuH7 cells assessed as inhibition of viral replication after 72 hrs by RT-PCR method in presence of 10% fetal bovine serum; format: functional, organism-based, Hepacivirus hominis; settings: subtype 1a, Huh-7, 72 h
Hepatitis C virus [11] = assay: Antiviral activity against HCV genotype 1b harboring wild type NS3/4A protease infected in human HuH7 cells assessed as inhibition of viral replication after 72 hrs by RT-PCR method in presence of 10% normal human serum; format: functional, organism-based, Hepacivirus hominis; settings: Huh-7, 72 h
[12] = Half life in rat at 5 mg/kg, po; format: ADME, organism-based; settings: in vivo
[13] = Oral bioavailability in rat at 5 mg/kg; format: ADME, organism-based; settings: in vivo
[14] = Inhibition of HCV genotype 1b full length NS3/4A protease using Ac-C(Eu)DDMEEAbu[COO]ASK(QSY7)-amide as substrate preincubated for 30 mins followed by substrate addition measured after 2.5 hrs by TRF assay; parameters: species or system Hepatitis C virus subtype 1b
[15] = target: Hepatitis C virus serine protease, NS3/NS4A (Hepatitis C virus, UniProt A3EZI9+D2K2A8, R155K); assay: Inhibition of HCV genotype 1b NS3/4A protease R155K mutant using Ac-C(Eu)DDMEEAbu[COO]ASK(QSY7)-amide as substrate preincubated for 30 mins followed by substrate addition measured after 2.5 hrs by TRF assay; parameters: species or system Hepatitis C virus subtype 1b

SMILES	AUC(0-t) at 24 h [1]	IC50 [2]	IC50 [3]	IC50 [4]	IC50 [5]	EC50 (Hepatitis C virus [6])	EC50 (Hepatitis C virus [7])	EC50 (Hepatitis C virus [8])	EC50 (Hepatitis C virus [9])	EC50 (Hepatitis C virus [10])	EC50 (Hepatitis C virus [11])	half-life [12]	bioavailability [13]	IC50 [14]	IC50 [15]
COc1ccc2nc(C3CC3)c3c(c2c1)CC[C@]1(C[C@H]2C(=O)N[C@]4(C(=O)NS(=O)(=O)C5(C)CC5)C[C@H]4/C=C\CCCCC[C@H](NC(=O)OCC(C)C)C(=O)N2C1)O3	2.3 µM·h	1.33 nM	–	–	–	–	–	–	–	–	–	–	–	–	–
Cc1nc2ccccc2c2c1O[C@]1(CC2)C[C@H]2C(=O)N[C@]3(C(=O)NS(=O)(=O)C4(C)CC4)C[C@H]3/C=C\CCCCC[C@H](NC(=O)OC(C)(C)C)C(=O)N2C1	0.14 µM·h	0.7 nM	0.018 nM	0.44 nM	0.049 nM	0.6 nM	0.6 nM	0.67 nM	1.2 nM	1 nM	4.5 nM	54 min	4%	0.013 nM	0.083 nM
